According to ChEMBL document CHEMBL1201862, “PubChem BioAssay data set” (2004):
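Method: 48-hour compound exposure of cells in 96-well plates, five concentrations, linear interpolation of endpoints. GI50 is the concentration that inhibits growth by half.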 Calls of active or inactive are those of the source. Rule as the data show it: active = GI50 up to about 1.1 µM and inactive = higher.

Key:
Assay in all cases: NCI-60 cell line screen, 48 h
786-0 = tested on: 786-0
A498 = tested on: A498
A549 = tested on: A549
BT-549 = tested on: BT-549
COLO 205 = tested on: COLO 205
DU-145 = tested on: DU-145
Hs-578T = tested on: Hs-578T
K562 = tested on: K562
MDA-MB-231 = tested on: MDA-MB-231
MDA-MB-435 = tested on: MDA-MB-435
OVCAR-3 = tested on: OVCAR-3
OVCAR-4 = tested on: OVCAR-4
OVCAR-8 = tested on: OVCAR-8
SF-295 = tested on: SF-295
SK-MEL-2 = tested on: SK-MEL-2
SK-OV-3 = tested on: SK-OV-3
SW-620 = tested on: SW-620
U-251 = tested on: U-251
UACC-257 = tested on: UACC-257
DLD-1 = tested on: DLD-1

Row | SMILES | GI50 (786-0) | GI50 (A498) | GI50 (A549) | GI50 (BT-549) | GI50 (COLO 205) | GI50 (DU-145) | GI50 (Hs-578T) | GI50 (K562) | GI50 (MDA-MB-231) | GI50 (MDA-MB-435) | GI50 (OVCAR-3) | GI50 (OVCAR-4) | GI50 (OVCAR-8) | GI50 (SF-295) | GI50 (SK-MEL-2) | GI50 (SK-OV-3) | GI50 (SW-620) | GI50 (U-251) | GI50 (UACC-257) | GI50 (DLD-1)
1 | Cc1cccc(-c2cc(O)c3c(C)cc(C)nc3n2)c1 | 4.57 µM (inactive) | 5.71 µM (inactive) | 3.66 µM (inactive) | 3.73 µM (inactive) | 1.04 µM (active) | 4.32 µM (inactive) | 2.52 µM (inactive) | 0.585 µM (active) | 5.7 µM (inactive) | 0.321 µM (active) | 1.43 µM (inactive) | 4.38 µM (inactive) | 5.58 µM (inactive) | 2.72 µM (inactive) | 2.73 µM (inactive) | 2.24 µM (inactive) | 0.792 µM (active) | 2.79 µM (inactive) | 7.87 µM (inactive) | –
2 | Nc1nc(-c2ccccc2)c(-c2ccccc2)c(-c2nc(N)nc(-c3ccccc3)c2-c2ccccc2)n1 | > 100 µM (inactive) | 75.5 µM (inactive) | > 100 µM (inactive) | > 100 µM (inactive) | > 100 µM (inactive) | > 100 µM (inactive) | > 100 µM (inactive) | > 100 µM (inactive) | > 100 µM (inactive) | > 100 µM (inactive) | 83.2 µM (inactive) | 91 µM (inactive) | > 100 µM (inactive) | 78.9 µM (inactive) | > 100 µM (inactive) | > 100 µM (inactive) | > 100 µM (inactive) | > 100 µM (inactive) | > 100 µM (inactive) | –
3 | CC(=O)C(C)CCOC1(C)OCCC1C (stereo not drawn) | > 100 µM (inactive) | > 100 µM (inactive) | > 100 µM (inactive) | > 100 µM (inactive) | 65 µM (inactive) | > 100 µM (inactive) | > 100 µM (inactive) | > 100 µM (inactive) | > 100 µM (inactive) | > 100 µM (inactive) | > 100 µM (inactive) | > 100 µM (inactive) | > 100 µM (inactive) | > 100 µM (inactive) | > 100 µM (inactive) | > 100 µM (inactive) | > 100 µM (inactive) | > 100 µM (inactive) | > 100 µM (inactive) | –
4 | O=[N+]([O-])c1ccc2nc3c(nc2c1)-c1c2ccccc2cc2cccc-3c12 | 7.62 µM (inactive) | 0.427 µM (active) | 48.6 µM (inactive) | 3.56 µM (inactive) | > 100 µM (inactive) | 28.2 µM (inactive) | 5.37 µM (inactive) | 6.1 µM (inactive) | 18.7 µM (inactive) | 27.8 µM (inactive) | 12.3 µM (inactive) | 24.3 µM (inactive) | 7.55 µM (inactive) | 19.6 µM (inactive) | 27.2 µM (inactive) | 17.5 µM (inactive) | 4.83 µM (inactive) | 5.9 µM (inactive) | 18.8 µM (inactive) | –
5 | Nc1ccc(C(=O)N/C(=C\c2cccc([N+](=O)[O-])c2)c2nc3cc(Cl)ccc3[nH]2)cc1 | 92 µM (inactive) | – | 77.3 µM (inactive) | – | > 100 µM (inactive) | – | – | > 100 µM (inactive) | – | – | > 100 µM (inactive) | 50.4 µM (inactive) | > 100 µM (inactive) | > 100 µM (inactive) | > 100 µM (inactive) | > 100 µM (inactive) | > 100 µM (inactive) | > 100 µM (inactive) | – | > 100 µM (inactive)
6 | COc1ccc(-c2c(CN3CCOCC3)sc3nc4ccccc4n23)cc1 | 17.2 µM (inactive) | 23.7 µM (inactive) | 22.2 µM (inactive) | > 49.4 µM (inactive) | 16.4 µM (inactive) | 28.2 µM (inactive) | 21.6 µM (inactive) | 3.31 µM (inactive) | 23 µM (inactive) | 2.94 µM (inactive) | 9.86 µM (inactive) | 47.6 µM (inactive) | 26.5 µM (inactive) | 9.08 µM (inactive) | 30.5 µM (inactive) | 21.6 µM (inactive) | 12.2 µM (inactive) | 16.1 µM (inactive) | > 72.1 µM (inactive) | –
7 | Cn1c2ccccc2c2[nH]c3ccccc3c(=O)c21 | > 100 µM (inactive) | > 100 µM (inactive) | > 100 µM (inactive) | > 100 µM (inactive) | > 100 µM (inactive) | > 100 µM (inactive) | > 100 µM (inactive) | > 100 µM (inactive) | > 100 µM (inactive) | > 100 µM (inactive) | > 100 µM (inactive) | > 10 µM (inactive) | > 100 µM (inactive) | > 100 µM (inactive) | > 100 µM (inactive) | > 100 µM (inactive) | 88.3 µM (inactive) | > 100 µM (inactive) | > 100 µM (inactive) | –
8 | N#Cc1ccc(CSC2=C(c3ccc(Cl)cc3)S/C(=C3\SC(SCc4ccc(C#N)cc4)=C(c4ccc(Cl)cc4)S3)S2)cc1 | > 100 µM (inactive) | > 100 µM (inactive) | > 100 µM (inactive) | > 100 µM (inactive) | > 100 µM (inactive) | > 100 µM (inactive) | > 100 µM (inactive) | > 100 µM (inactive) | > 100 µM (inactive) | > 100 µM (inactive) | > 100 µM (inactive) | > 100 µM (inactive) | > 100 µM (inactive) | > 100 µM (inactive) | > 100 µM (inactive) | > 100 µM (inactive) | > 100 µM (inactive) | > 100 µM (inactive) | > 100 µM (inactive) | –
9 | COc1ccc(C(C#N)NNC(=O)Cc2ccccc2)cc1OC (stereo not drawn) | > 100 µM (inactive) | – | > 100 µM (inactive) | – | > 100 µM (inactive) | – | – | > 100 µM (inactive) | – | – | – | > 100 µM (inactive) | > 100 µM (inactive) | > 100 µM (inactive) | > 100 µM (inactive) | > 100 µM (inactive) | > 100 µM (inactive) | > 100 µM (inactive) | > 100 µM (inactive) | > 100 µM (inactive)
10 | O=C(c1cc2ccccc2[nH]1)N1C2CCC1CN(CCOC(c1ccc(F)cc1)c1ccc(F)cc1)CC2 (stereo not drawn) | > 100 µM (inactive) | > 100 µM (inactive) | 34.9 µM (inactive) | > 100 µM (inactive) | 5 µM (inactive) | > 100 µM (inactive) | > 100 µM (inactive) | 5.15 µM (inactive) | 9.2 µM (inactive) | > 100 µM (inactive) | 9.02 µM (inactive) | > 100 µM (inactive) | > 100 µM (inactive) | 9.89 µM (inactive) | 81.8 µM (inactive) | > 100 µM (inactive) | > 100 µM (inactive) | 3.99 µM (inactive) | 12.5 µM (inactive) | –
11 | COc1cc(N(CCC#N)CCC#N)ccc1C(/N=N/c1cccc(C)c1)=N\NC(=O)c1ccc(C)cc1 | > 100 µM (inactive) | 4.78 µM (inactive) | > 100 µM (inactive) | > 100 µM (inactive) | 60 µM (inactive) | > 100 µM (inactive) | > 100 µM (inactive) | > 100 µM (inactive) | > 100 µM (inactive) | > 100 µM (inactive) | > 100 µM (inactive) | > 100 µM (inactive) | > 100 µM (inactive) | > 100 µM (inactive) | > 100 µM (inactive) | > 100 µM (inactive) | > 100 µM (inactive) | 45.8 µM (inactive) | > 100 µM (inactive) | –
12 | CC(C)N/C(=N\C#N)NS(=O)(=O)c1cnccc1NC1CCCCCCC1 | > 100 µM (inactive) | > 100 µM (inactive) | > 100 µM (inactive) | > 100 µM (inactive) | > 100 µM (inactive) | > 100 µM (inactive) | > 100 µM (inactive) | > 100 µM (inactive) | > 100 µM (inactive) | > 100 µM (inactive) | > 100 µM (inactive) | > 100 µM (inactive) | > 100 µM (inactive) | > 100 µM (inactive) | > 100 µM (inactive) | > 100 µM (inactive) | > 100 µM (inactive) | > 100 µM (inactive) | > 100 µM (inactive) | –
13 | C/C(=N/NC(=S)Nc1ccc(C)cc1)c1ccccn1 | 0.0427 µM (active) | 2.51 µM (inactive) | 0.5 µM (active) | 4.38 µM (inactive) | < 0.0166 µM (active) | 0.794 µM (active) | 0.859 µM (active) | < 0.0127 µM (active) | < 0.0154 µM (active) | 1.07 µM (active) | 0.0179 µM (active) | 1.47 µM (inactive) | 0.0258 µM (active) | 0.193 µM (active) | 1.41 µM (inactive) | 0.0363 µM (active) | < 0.0164 µM (active) | 0.125 µM (active) | < 0.0163 µM (active) | –
14 | CC(C)C1CC(CO)(CNc2nc(N)nc(Cl)c2C=O)C1 (stereo not drawn) | 31.3 µM (inactive) | 15.1 µM (inactive) | 12.9 µM (inactive) | 11.4 µM (inactive) | 12.3 µM (inactive) | 14.6 µM (inactive) | 4.38 µM (inactive) | 2.56 µM (inactive) | 2.45 µM (inactive) | 2.23 µM (inactive) | 3.47 µM (inactive) | 4.81 µM (inactive) | 2.75 µM (inactive) | 16.6 µM (inactive) | 1.8 µM (inactive) | 6.79 µM (inactive) | 6.15 µM (inactive) | 3.35 µM (inactive) | 2.49 µM (inactive) | –
15 | C/C(=C\[C@H]1C[C@@H]([C@@H]2CC[C@]34C[C@]23C=C[C@@H]2[C@@]3(C)CC=C5C[C@@H](c6ccccc6)OC[C@]5(C)[C@@H]3C[C@@H](O)[C@]24C)C(=O)O1)CO [DICHAPETALIN A] | 4.38 µM (inactive) | 0.437 µM (active) | 2.79 µM (inactive) | 3.78 µM (inactive) | 2.01 µM (inactive) | 10.2 µM (inactive) | 10.9 µM (inactive) | 0.553 µM (active) | 5.35 µM (inactive) | 2.48 µM (inactive) | 3.52 µM (inactive) | 3.03 µM (inactive) | 4.91 µM (inactive) | 1.34 µM (inactive) | 31.4 µM (inactive) | > 36.8 µM (inactive) | 2.72 µM (inactive) | 1.04 µM (active) | 1.96 µM (inactive) | –
